Laboratory results published in patent US20220054548A1, “MIRNA FOR USE IN THERAPY” (King's College London, priority 2018, published 2022).
“Also recorded” adds a separate entry of the source.

Columns and labels:
[1] = tested on: TREGS from WT and TREG^Δ142 mice; assay: In vitro co-culture suppression assay after in vitro cilostamide treatment; assay type: cell-based, mouse
From the text: (§1) In vitro Suppression Assay. CD4^+ T cells were isolated from pooled peripheral lymph nodes and spleens of 5-6 week old mice using CD4 microbeads (Miltenyi Biotec). Cells were labeled with fluorochrome-conjugated anti-mouse antibodies to CD4, CD62L, CD44 and CD25 (eBioscience) and sorted using a BD FACSAria II flow cytometric cell sorter (BD Biosciences) to >95% purity for YFP^+ CD4^+ cells (TREGS) and naïve (CD25−, CD62L+, CD44−) CD4+ T cells (TEFFS). An aliquot of the sorted TREG population was stained with Live-Dead and anti-CD25 antibodies, fixed and permeabilised, then stained for FoxP3 and acquired on a flow cytometer (as before) to confirm purity. The TEFFS were labeled with 10 μM Cell Trace Violet (Life Technologies) according to the manufacturer's instructions, washed and then cultured in a 96-well U-bottom plate alone or with TREGS at ratios ranging from (TEFF:TREG) 1:1 to 32:1, in triplicate, in the presence of anti-CD3 and anti-CD28 Dynabeads (Life Technologies) at a bead:cell ratio of 2:1, and RPMI 1640 cell culture medium (Gibco, Life Technologies) supplemented with 10% fetal calf serum, 50 μM 2-Mercapto-ethanol, 2 μM L-glutamine, pyruvate, HEPES, non-essential amino acids and antibiotics at 37° C. 5% CO2. All 4 possible combinations of TREGS and TEFFS from each group were utilised. After 72 hours in culture, the cells were stained with fluorochrome-conjugated anti-mouse antibodies to Live/Dead (Life Technologies) and then proliferation of the TEFFS was assessed by flow cytometry based on Cell Trace Violet dilution (excluding YFP+ and dead cells). The numbers of non-proliferating cells (events in the first peak) and precursors of proliferating cells were calculated using standard formulae. Percentage suppression (S) of proliferation was calculated using the formula: […]
In vitro Cilostamide treatment. […] They were then cultured in the presence of 10 μM cilostamide (Sigma Aldrich), or equivalent PBS/DMSO control for 48 hours before being washed twice, counted and used in an in vitro co-culture suppression assay, as above. […]

miR-142-deficient TREGS = assay: Co-culture TREG suppression assay ex vivo after 4 weeks of in vivo cilostamide treatment; parameters: species or system mouse; details: TREGS isolated ex vivo after 4 weeks of cilostamide treatment
From the text: as §1, with “The TEFFS were labeled with 10 μM Cell Trace Violet (Life Technologies) according to the manufacturer's instructions, washed and then cultured in a 96-well U-bottom plate alone or with TREGS at ratios ranging from (TEFF:TREG) 1:1 to 32:1, in triplicate, in the presence of anti-CD3 and anti-CD28 Dynabeads (Life Technologies) at a bead:cell ratio of 2:1, and RPMI 1640 cell culture medium (Gibco, Life Technologies) supplemented with 10% fetal calf serum, 50 μM 2-Mercapto-ethanol, 2 μM L-glutamine, pyruvate, HEPES, non-essential amino acids and antibiotics at 37° C. 5% CO2. All 4 possible combinations of TREGS and TEFFS from each group were utilised.” left out
In vivo cilostamide treatment. […] The mice were weighed every other day and monitored for signs of disease. […]

TREG^Δ142 mice = assay: In vivo cilostamide treatment of TREG^Δ142 mice (weight, survival); parameters: species or system mouse; details: 6.4 mg/kg intra-peritoneal cilostamide on alternate days from 8 weeks of age
Protocol: In vivo cilostamide treatment. Littermate TREG^Δ142 and WT mice were treated from 8 weeks of age with alternate day intra-peritoneal injections of either 6.4 mg/kg cilostamide (Sigma) in PBS 10% DMSO, or a control solution of PBS 10% DMSO. The mice were weighed every other day and monitored for signs of disease. A proportion of mice were sacrificed after 4 weeks of treatment and TREGS were isolated directly ex vivo for use in an in vitro co-culture suppression assay (as before). A proportion of mice were kept alive for as long as possible (either until they lost more than 15% of their body weight and had to be euthanised, or until the end of the experiment).

CN(C(=O)CCCOc1ccc2[nH]c(=O)ccc2c1)C1CCCCC1 [cilostamide]
TREG suppressive function (suppression of TEFF proliferation) ([1]; TEFFS pre-treated with cilostamide): No rescue of suppressive function | TREG suppressive function (suppression of TEFF proliferation) ([1]; TREG^Δ142 TREGS pre-treated with cilostamide 10 μM prior to co-culture with untreated TEFFS in the absence of cilostamide): restored the suppressive function; also recorded: no significant difference | TREG suppressive capacity ([1]; WT TREGS treated with cilostamide in vitro, compared with WT TREGS): marginal augmentation of ex vivo suppressive capacity | Suppressive activity of miR-142-deficient TREGS (miR-142-deficient TREGS): fully restored suppressive activity | Lethal autoimmune disease (weight and survival) (TREG^Δ142 mice): prevented lethal autoimmune disease
